These results are taken from ChEMBL document CHEMBL4311942, “Design of Trp-Rich Dodecapeptides with Broad-Spectrum Antimicrobial Potency and Membrane-Disruptive Mechanism” (J Med Chem, 2019).

Data set [1] has as its system Salmonella typhimurium. In words: Antibacterial activity against Salmonella enterica serovar typhimurium C77-31 incubated for 18 to 24 hrs by broth microdilution method. Format: functional, Salmonella enterica subsp. enterica serovar Typhimurium. In general terms: Broth dilution looks for growth in wells or tubes with falling amounts of substance.
Data set [2] concerns Staphylococcus aureus. In words: Antibacterial activity against Staphylococcus aureus ATCC 29213 in presence of CaCl2 by broth microdilution method. Format: functional.
Data set [3] concerns Staphylococcus aureus. In words: Antibacterial activity against Staphylococcus aureus ATCC 29213 in presence of 50% serum by broth microdilution method. Format: functional.
The subject of data set [4] is Staphylococcus aureus. The experiment in a line: Antibacterial activity against Staphylococcus aureus ATCC 29213 incubated for 2 hrs in presence of sodium phosphate buffer at pH 10 by broth microdilution method. It is filed as functional. The note with it: ATCC 29213, 2 h.
For data set [5], the system named is Escherichia coli. The experiment in a line: Antibacterial activity against Escherichia coli ATCC 25922 in presence of FeCl3 by broth microdilution method. It is filed as functional.
In data set [6] the test system is Escherichia coli. In words: Antibacterial activity against Escherichia coli ATCC 25922 in presence of H202 by broth microdilution method. It is filed as functional.
Data set [7] concerns Staphylococcus aureus. The experiment in a line: Antibacterial activity against Staphylococcus aureus ATCC 29213 in presence of FeCl3 by broth microdilution method. Format: functional.
The nature of data set [8]: (§1) Cytotoxicity against mouse RAW264.7 cells assessed as cell survival at <= 32 uM after 24 hrs by MTT assay relative to control. It is filed as cell-based. The note with it: RAW264.7 cells, up to 32 µM, read-out: Activity.
For data set [9], the system named is Staphylococcus aureus. The experiment in a line: Antibacterial activity against Staphylococcus aureus ATCC 29213 in presence of H202 by broth microdilution method. It is filed as functional.
Data set [10] deals with Escherichia coli. In words: Antibacterial activity against Escherichia coli ATCC 25922 in presence of KCl by broth microdilution method. It is filed as functional.
Data set [11] is described as follows: Therapeutic index, ratio of MHC for human RBC to geometric mean of peptide MIC for Escherichia coli ATCC 25922. It is filed as toxicity. The note with it: pooled result: one value given for 6 cell lines, strains, targets or settings, read-out: TI.
The test system of data set [12] is Escherichia coli. The experiment in a line: Antibacterial activity against Escherichia coli ATCC 25922 in presence of ZnCl2 by broth microdilution method. Format: functional.
The subject of data set [13] is Staphylococcus aureus. The experiment in a line: Antibacterial activity against Staphylococcus aureus ATCC 29213 in presence of NaCl by broth microdilution method. It is filed as functional.
In data set [14] the test system is Escherichia coli. The experiment in a line: Antibacterial activity against Escherichia coli ATCC 25922 in presence of 50% serum by broth microdilution method. Format: functional.
The subject of data set [15] is Escherichia coli. In words: Antibacterial activity against Escherichia coli ATCC 25922 in presence of NaBH4 by broth microdilution method. Format: functional.
Data set [16] relates to Staphylococcus aureus. The experiment in a line: Antibacterial activity against Staphylococcus aureus ATCC 25923 incubated for 18 to 24 hrs by broth microdilution method. It is filed as functional.
In data set [17] the test system is Escherichia coli. In words: Antibacterial activity against Escherichia coli ATCC 25922 in presence of 12.5% serum by broth microdilution method. It is filed as functional.
Data set [18] deals with Staphylococcus aureus. The experiment in a line: Antibacterial activity against Staphylococcus aureus ATCC 29213 incubated for 2 hrs in presence of sodium phosphate buffer at pH 4 by broth microdilution method. The note with it: ATCC 29213, 2 h. Format: functional.
Data set [19] concerns Erythrocyte. The experiment in a line: Haemolytic activity in human erythrocytes assessed as lowest concentration causing 5% hemolysis after 1 hr. It is filed as ADME, cell-based.
The test system of data set [20] is Escherichia coli. The experiment in a line: Antibacterial activity against Escherichia coli ATCC 25922 in presence of MgCl2 by broth microdilution method. It is filed as functional.
Data set [21] concerns Escherichia coli. In words: Antibacterial activity against Escherichia coli ATCC 25922 in presence of NH4Cl by broth microdilution method. It is filed as functional.
The subject of data set [22] is Escherichia coli. The experiment in a line: Antibacterial activity against Escherichia coli ATCC 25922 incubated for 2 hrs in presence of sodium phosphate buffer at pH 12 by broth microdilution method. Format: functional. Particulars: ATCC 25922, 2 h.
For data set [23], the system named is Staphylococcus epidermidis. The experiment in a line: Antibacterial activity against Staphylococcus epidermidis ATCC 12228 incubated for 18 to 24 hrs by broth microdilution method. Format: functional.
For data set [24], the system named is Escherichia coli. The experiment in a line: Antibacterial activity against Escherichia coli ATCC 25922 incubated for 2 hrs in presence of sodium phosphate buffer at pH 2 by broth microdilution method. Format: functional. Particulars: ATCC 25922, 2 h.
In data set [25] the test system is Escherichia coli. The experiment in a line: Antibacterial activity against Escherichia coli ATCC 25922 incubated for 2 hrs in presence of sodium phosphate buffer at pH 10 by broth microdilution method. It is filed as functional. The note with it: ATCC 25922, 2 h.
For data set [26], the system named is Escherichia coli. The experiment in a line: Antibacterial activity against Escherichia coli ATCC 25922 in presence of 25% serum by broth microdilution method. Format: functional.
The subject of data set [27] is Escherichia coli. The experiment in a line: Antibacterial activity against Escherichia coli ATCC 25922 in presence of NaCl by broth microdilution method. Format: functional.
The subject of data set [28] is Staphylococcus aureus. In words: Antibacterial activity against Staphylococcus aureus ATCC 29213 in presence of NaBH4 by broth microdilution method. Format: functional.
For data set [29], the system named is Staphylococcus aureus. In words: Antibacterial activity against Staphylococcus aureus ATCC 29213 using preheated compound at 100 degreeC for 1 hr by broth microdilution method. Format: functional. Particulars: ATCC 29213, 1 h.
Data set [30] concerns Staphylococcus aureus. In words: Antibacterial activity against Staphylococcus aureus ATCC 29213 incubated for 2 hrs in presence of sodium phosphate buffer at pH 12 by broth microdilution method. It is filed as functional. Particulars: ATCC 29213, 2 h.
The test system of data set [31] is Staphylococcus aureus. In words: Antibacterial activity against Staphylococcus aureus ATCC 29213 in presence of NH4Cl by broth microdilution method. It is filed as functional.
In data set [32] the test system is Escherichia coli. In words: Antibacterial activity against Escherichia coli ATCC 25922 incubated for 18 to 24 hrs by broth microdilution method. It is filed as functional.
The test system of data set [33] is Staphylococcus aureus. In words: Antibacterial activity against Staphylococcus aureus ATCC 29213 in presence of KCl by broth microdilution method. Format: functional.
Data set [34] deals with Staphylococcus aureus. The experiment in a line: Antibacterial activity against Staphylococcus aureus ATCC 29213 in presence of MgCl2 by broth microdilution method. Format: functional.
In data set [35] the test system is Staphylococcus aureus. In words: Antibacterial activity against Staphylococcus aureus ATCC 29213 in presence of 25% serum by broth microdilution method. Format: functional.
Data set [36] has as its system Escherichia coli. The experiment in a line: Antibacterial activity against Escherichia coli ATCC 25922 in presence of CaCl2 by broth microdilution method. It is filed as functional.
Data set [37] concerns Staphylococcus aureus. The experiment in a line: Antibacterial activity against Staphylococcus aureus ATCC 29213 incubated for 2 hrs in presence of sodium phosphate buffer at pH 2 by broth microdilution method. The note with it: ATCC 29213, 2 h. It is filed as functional.
For data set [38], the system named is Staphylococcus aureus. In words: Antibacterial activity against Staphylococcus aureus ATCC 29213 in presence of ZnCl2 by broth microdilution method. Format: functional.
Data set [39] relates to Escherichia coli. The experiment in a line: Antibacterial activity against Escherichia coli ATCC 25922 incubated for 2 hrs in presence of sodium phosphate buffer at pH 4 by broth microdilution method. Format: functional. Particulars: ATCC 25922, 2 h.
For data set [40], the system named is Staphylococcus aureus. The experiment in a line: Antibacterial activity against Staphylococcus aureus ATCC 29213 in presence of 12.5% serum by broth microdilution method. Format: functional.
Data set [41] deals with Escherichia coli. In words: Antibacterial activity against Escherichia coli ATCC 25922 using preheated compound at 100 degreeC for 1 hr by broth microdilution method. It is filed as functional. The note with it: ATCC 25922, 1 h.
For data set [42], the system named is Escherichia coli. The experiment in a line: Antibacterial activity against Escherichia coli UB1005 incubated for 18 to 24 hrs by broth microdilution method. It is filed as functional.
For data set [43], the system named is Staphylococcus aureus. In words: Antibacterial activity against Staphylococcus aureus ATCC 29213 incubated for 18 to 24 hrs by broth microdilution method. Format: functional.
Data set [44] deals with RAW264.7. The description is as §1. It is filed as cell-based. The note with it: raw264.7, 24 h.
Data set [45] concerns Lipopolysaccharide (LPS). The experiment in a line: Displacement of BODIPY-TR-cadaverine from Escherichia coli O111:B4 LPS assessed as increase in fluorescence intensity at 64 uM by spectrofluorophotometric method relative to control.
The subject of data set [46] is Escherichia coli. The experiment in a line: Antibacterial activity against ciprofloxacin-resistant Escherichia coli ATCC 25922 incubated for 18 to 24 hrs. Format: functional.
In data set [47] the test system is Staphylococcus aureus. The experiment in a line: Antibacterial activity against Staphylococcus aureus 11011 incubated for 18 to 24 hrs by broth microdilution method. It is filed as functional.

Values after ≈ are worked out from the molar mass of the structure shown. Where a SMILES comes first, the peptide text is derived from it. Some results are limits rather than exact numbers.

In general, MIC refers to the least concentration at which growth counts as inhibited. For `CC(C)C[C@H](NC(=O)[C@H](CCCNC(=N)N)NC(=O)[C@H](CCCCN)NC(=O)[C@H](CCCNC(=N)N)NC(=O)[C@@H](NC(=O)[C@H](CCCCN)NC(=O)[C@H](CCCCN)NC(=O)[C@H](CCCNC(=N)N)NC(=O)[C@H](CC(C)C)NC(=O)[C@H](CCCNC(=N)N)NC(=O)[C@@H](N)CCCNC(=N)N)[C@@H](C)O)C(=O)N[C@@H](CCCCN)C(N)=O` (H-RRLRKKTRKRLK-NH2), the MIC in [1], in data set [2], in data set [3], in [4], in data set [5] and in [6] was more than 128 µM in each case. The MIC in data set [7], in [9], in data set [10], in data set [12], in [13] and in data set [14] was more than 128 µM each time. Moreover, the MIC in [15], in data set [16], in data set [17], in data set [18], in data set [20] and in [21] was more than 128 µM in each case. Moreover, the MIC in data set [22], in data set [23], in [24], in data set [25], in data set [26] and in data set [27] was more than 128 µM in each case. Besides, the MIC in [28], in data set [29], in [30], in [31], in data set [32] and in data set [33] was more than 128 µM in each case. The MIC in data set [34], in data set [35], in data set [36], in [37], in data set [38] and in [39] was more than 128 µM in each case. In addition, the MIC in [40] is more than 128 µM; in data set [41], more than 128 µM; in [42], 64 µM (≈ 105 µg/mL); in [43], more than 128 µM. Moreover, the viability at 24 h in [8] is not below 70%. Further, the selectivity ratio in data set [11] was 1.26. For the same compound, in data set [19], the MHC was more than 128 µM.
Consider `CC(C)C[C@H](NC(=O)[C@H](Cc1c[nH]c2ccccc12)NC(=O)[C@H](CCCCN)NC(=O)[C@H](CCCNC(=N)N)NC(=O)[C@@H](NC(=O)[C@H](Cc1c[nH]c2ccccc12)NC(=O)[C@H](CCCCN)NC(=O)[C@H](CCCNC(=N)N)NC(=O)[C@H](CC(C)C)NC(=O)[C@H](Cc1c[nH]c2ccccc12)NC(=O)[C@@H](N)CCCNC(=N)N)[C@@H](C)O)C(=O)N[C@@H](CCCCN)C(N)=O` (H-RWLRKWTRKWLK-NH2), for which the MIC in [1] came to 16 µM (≈ 28.1 µg/mL); in data set [16], 16 µM (≈ 28.1 µg/mL); in data set [23], 8 µM (≈ 14 µg/mL); in [32], 4 µM (≈ 7.02 µg/mL); in [42], 4 µM (≈ 7.02 µg/mL); in data set [43], 8 µM (≈ 14 µg/mL). Besides, in data set [44], the Activity result is on record as “Non-Toxic”. In data set [11], the selectivity ratio stood at 32. For the same compound, the MHC in data set [19] was more than 128 µM.
With `O=C(O)c1cn(C2CC2)c2cc(N3CCNCC3)c(F)cc2c1=O` [CIPROFLOXACIN], the MIC in data set [1] was 4 µM (≈ 1.33 µg/mL); in [16], 0.5 µM (≈ 0.166 µg/mL); in [23], 0.5 µM (≈ 0.166 µg/mL); in data set [32], 2 µM (≈ 0.663 µg/mL); in data set [46] it was 256 µM (≈ 84.8 µg/mL); in data set [42] it was 2 µM (≈ 0.663 µg/mL). The MIC in [47] and in [43] was 0.5 µM (≈ 0.166 µg/mL) each time. The Activity in data set [45] was 1.6%.
